Reference: PubChem BioAssay AID1919008 (Molecular Pharmacology Branch, DTP, NCI, 2023)

System: DMS-114 complex spheroids with HUVEC/MSC, growth % test/control
Assay: Anticancer human tumor DMS-114 cell line growth inhibition [AhR];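 also: spheroids exposed to agents for 7 days before readout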;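 as to viability, T/C: 100% = DMSO vehicle control wells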
Details: for IC50: curve of first compound; for viability, T/C: stronger effect = lower value
In short: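 Complex tumor spheroids co-cultured with HUVEC and human MSC stroma; AhR antagonists tested in combination with standard-of-care and investigational agents. Top concentration at or near clinical Cmax (else 10 microM), half-log dilutions; growth expressed as percent test/control.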

[1] = second compound 0.1 µM, first compound 0.0316 µM
[2] = second compound 0.1 µM, first compound 0.1 µM
[3] = second compound 0.316 µM, first compound 0.0316 µM
[4] = second compound 0.316 µM, first compound 0.1 µM
[5] = second compound 1 µM, first compound 0.0316 µM
[6] = second compound 1 µM, first compound 0.1 µM
[7] = second compound 3.16 µM, first compound 0.0316 µM
[8] = second compound 3.16 µM, first compound 0.1 µM
[9] = second compound 10 µM, first compound 0.0316 µM
[10] = second compound 10 µM, first compound 0.1 µM

SMILES: CC1(C)CCC(CN2CCN(c3ccc(C(=O)NS(=O)(=O)c4ccc(NCC5CCOCC5)c([N+](=O)[O-])c4)c(Oc4cnc5[nH]ccc5c4)c3)CC2)=C(c2ccc(Cl)cc2)C1 + Cc1cncc(-c2nc(NCCc3c[nH]c4ccccc34)c3ncn(C(C)C)c3n2)c1
- IC50 (second compound 0.1 µM): > 10 µM
- IC50 (second compound 0.316 µM): > 10 µM
- IC50 (second compound 1 µM): > 10 µM
- IC50 (second compound 3.16 µM): > 10 µM
- IC50 (second compound 10 µM): 6.39 µM
- viability, T/C [1]: 91.9%
- viability, T/C [2]: 92.7%
- viability, T/C (second compound 0.1 µM, first compound 0.316 µM): 101%
- viability, T/C (second compound 0.1 µM, first compound 1 µM): 106%
- viability, T/C (second compound 0.1 µM, first compound 3.16 µM): 94.9%
- viability, T/C (second compound 0.1 µM, first compound 10 µM): 110%
- viability, T/C [3]: 91.5%
- viability, T/C [4]: 95.7%
- viability, T/C (second compound 0.316 µM, first compound 0.316 µM): 95.5%
- viability, T/C (second compound 0.316 µM, first compound 1 µM): 107%
- viability, T/C (second compound 0.316 µM, first compound 3.16 µM): 102%
- viability, T/C (second compound 0.316 µM, first compound 10 µM): 98.9%
- viability, T/C [5]: 102%
- viability, T/C [6]: 102%
- viability, T/C (second compound 1 µM, first compound 0.316 µM): 108%
- viability, T/C (second compound 1 µM, first compound 1 µM): 97.6%
- viability, T/C (second compound 1 µM, first compound 3.16 µM): 110%
- viability, T/C (second compound 1 µM, first compound 10 µM): 101%
- viability, T/C [7]: 96.8%
- viability, T/C [8]: 86.8%
- viability, T/C (second compound 3.16 µM, first compound 0.316 µM): 93.8%
- viability, T/C (second compound 3.16 µM, first compound 1 µM): 103%
- viability, T/C (second compound 3.16 µM, first compound 3.16 µM): 96.3%
- viability, T/C (second compound 3.16 µM, first compound 10 µM): 84.7%
- viability, T/C [9]: 50.9%
- viability, T/C [10]: 60.2%
- viability, T/C (second compound 10 µM, first compound 0.316 µM): 58.3%
- viability, T/C (second compound 10 µM, first compound 1 µM): 47.8%
- viability, T/C (second compound 10 µM, first compound 3.16 µM): 45%
- viability, T/C (second compound 10 µM, first compound 10 µM): 53.7%

SMILES: CCN(c1cc(-c2ccc(CN3CCOCC3)cc2)cc(C(=O)NCc2c(C)cc(C)[nH]c2=O)c1C)C1CCOCC1 + Cc1cncc(-c2nc(NCCc3c[nH]c4ccccc34)c3ncn(C(C)C)c3n2)c1
- IC50 (second compound 0.1 µM): > 3 µM
- IC50 (second compound 0.316 µM): > 3 µM
- IC50 (second compound 1 µM): > 3 µM
- IC50 (second compound 3.16 µM): > 3 µM
- IC50 (second compound 10 µM): 0.361 µM
- viability, T/C (second compound 0.1 µM, first compound 0.00949 µM): 92.9%
- viability, T/C (second compound 0.1 µM, first compound 0.03 µM): 97.4%
- viability, T/C (second compound 0.1 µM, first compound 0.0949 µM): 92.9%
- viability, T/C (second compound 0.1 µM, first compound 0.3 µM): 92.6%
- viability, T/C (second compound 0.1 µM, first compound 0.949 µM): 82.7%
- viability, T/C (second compound 0.1 µM, first compound 3 µM): 70.8%
- viability, T/C (second compound 0.316 µM, first compound 0.00949 µM): 94.9%
- viability, T/C (second compound 0.316 µM, first compound 0.03 µM): 89.3%
- viability, T/C (second compound 0.316 µM, first compound 0.0949 µM): 109%
- viability, T/C (second compound 0.316 µM, first compound 0.3 µM): 90.5%
- viability, T/C (second compound 0.316 µM, first compound 0.949 µM): 78.9%
- viability, T/C (second compound 0.316 µM, first compound 3 µM): 59%
- viability, T/C (second compound 1 µM, first compound 0.00949 µM): 99.1%
- viability, T/C (second compound 1 µM, first compound 0.03 µM): 101%
- viability, T/C (second compound 1 µM, first compound 0.0949 µM): 95.9%
- viability, T/C (second compound 1 µM, first compound 0.3 µM): 91.2%
- viability, T/C (second compound 1 µM, first compound 0.949 µM): 76.6%
- viability, T/C (second compound 1 µM, first compound 3 µM): 68.8%
- viability, T/C (second compound 3.16 µM, first compound 0.00949 µM): 99.3%
- viability, T/C (second compound 3.16 µM, first compound 0.03 µM): 97.8%
- viability, T/C (second compound 3.16 µM, first compound 0.0949 µM): 90%
- viability, T/C (second compound 3.16 µM, first compound 0.3 µM): 92%
- viability, T/C (second compound 3.16 µM, first compound 0.949 µM): 74.8%
- viability, T/C (second compound 3.16 µM, first compound 3 µM): 63.5%
- viability, T/C (second compound 10 µM, first compound 0.00949 µM): 58.2%
- viability, T/C (second compound 10 µM, first compound 0.03 µM): 55.2%
- viability, T/C (second compound 10 µM, first compound 0.0949 µM): 54.3%
- viability, T/C (second compound 10 µM, first compound 0.3 µM): 50.9%
- viability, T/C (second compound 10 µM, first compound 0.949 µM): 45.7%
- viability, T/C (second compound 10 µM, first compound 3 µM): 46.4%

SMILES: Cn1ncnc1C1c2n[nH]c(=O)c3cc(F)cc(c23)NC1c1ccc(F)cc1 (stereo not given) + Cc1cncc(-c2nc(NCCc3c[nH]c4ccccc34)c3ncn(C(C)C)c3n2)c1
- IC50 (second compound 0.1 µM): > 0.1 µM
- IC50 (second compound 0.316 µM): > 0.1 µM
- IC50 (second compound 1 µM): > 0.1 µM
- IC50 (second compound 3.16 µM): > 0.1 µM
- IC50 (second compound 10 µM): < 0.000316 µM
- viability, T/C (second compound 0.1 µM, first compound 0.000316 µM): 103%
- viability, T/C (second compound 0.1 µM, first compound 0.001 µM): 93.9%
- viability, T/C (second compound 0.1 µM, first compound 0.00316 µM): 100%
- viability, T/C (second compound 0.1 µM, first compound 0.01 µM): 105%
- viability, T/C [1]: 98.2%
- viability, T/C [2]: 75.5%
- viability, T/C (second compound 0.316 µM, first compound 0.000316 µM): 87.5%
- viability, T/C (second compound 0.316 µM, first compound 0.001 µM): 89.6%
- viability, T/C (second compound 0.316 µM, first compound 0.00316 µM): 88.1%
- viability, T/C (second compound 0.316 µM, first compound 0.01 µM): 87.1%
- viability, T/C [3]: 84.7%
- viability, T/C [4]: 80.2%
- viability, T/C (second compound 1 µM, first compound 0.000316 µM): 94.1%
- viability, T/C (second compound 1 µM, first compound 0.001 µM): 99%
- viability, T/C (second compound 1 µM, first compound 0.00316 µM): 96.8%
- viability, T/C (second compound 1 µM, first compound 0.01 µM): 93.6%
- viability, T/C [5]: 93.3%
- viability, T/C [6]: 81.3%
- viability, T/C (second compound 3.16 µM, first compound 0.000316 µM): 85.4%
- viability, T/C (second compound 3.16 µM, first compound 0.001 µM): 95.4%
- viability, T/C (second compound 3.16 µM, first compound 0.00316 µM): 89.3%
- viability, T/C (second compound 3.16 µM, first compound 0.01 µM): 77.3%
- viability, T/C [7]: 79.2%
- viability, T/C [8]: 74.9%
- viability, T/C (second compound 10 µM, first compound 0.000316 µM): 47.6%
- viability, T/C (second compound 10 µM, first compound 0.001 µM): 50.7%
- viability, T/C (second compound 10 µM, first compound 0.00316 µM): 42.7%
- viability, T/C (second compound 10 µM, first compound 0.01 µM): 41.6%
- viability, T/C [9]: 37.6%
- viability, T/C [10]: 45.2%
